Ends that are not written are not given here.
Columns and labels:
Escherichia coli = type: cell-based
Protocol: (§1) The antimicrobial activity of the peptides was tested against gram-positive Staphylococcus aureus and gram-negative Escherichia coli by a broth microdilution method, as described previously. Briefly, a colony of bacteria was incubated in culture medium (10 mL) and incubated at 37 °C for 14–18 h. After an aliquot (50 μL) of this culture was transferred to fresh culture medium (10 mL), each bacterial strain was grown to reach the mid-logarithmic phase. A total of 100 μL of bacteria (2 × 10^6 CFU/mL) were added to 96-well microtiter plates in the presence of serial dilutions of peptides. […] Measurements were repeated at least three times in triplicate.

Staphylococcus aureus = type: cell-based
Protocol: as §1

| Sequence | MIC E. coli (Escherichia coli) | MIC S. aureus (Staphylococcus aureus) |
| --- | --- | --- |
| RIIDLLWRVRRAQKAKFVTVWVR [PMAP-PA] | 8 to 16 µM | 8 to 16 µM |
| RIIDLLWRVRRGQKGKFVTVWVR [PMAP-PG] | 8 to 16 µM |  |
| RIIDLLWRVRRPQKPKFVTVWVR [PMAP-23] | 2 to 4 µM | 2 to 4 µM |

— paper PMC8467763, “The Central PXXP Motif Is Crucial for PMAP-23 Translocation across the Lipid Bilayer” (International Journal of Molecular Sciences, 2021)
